This note sets out measurements from PubChem BioAssay (NCI).

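Cultured in 96-well plates, cells were exposed to test compound for 48 hours across five concentrations. GI50: concentration for 50% inhibition of growth. TGI denotes the concentration required for complete inhibition of growth.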

Some test systems named below: 786-0 renal; HOP-92 NSCLC; MDA-MB-435; MOLT-4 leukemia; SK-MEL-2 melanoma; DU-145 prostate; NCI/ADR-RES ovarian; M14 melanoma; SN12C renal; SK-OV-3 ovarian.
What all share (experiment): growth of human tumour cells (NCI), 48 h

With `COc1ccc(OC)c(NC2=NCCO2)c1`, the TGI with 786-0 renal was over 100 µM; in the assay with HOP-92 NSCLC, 77.4 µM; in the assay on MDA-MB-435 it was over 100 µM; in the assay with MOLT-4 leukemia, over 100 µM; with SK-MEL-2 melanoma, over 100 µM; in the assay with DU-145 prostate, over 100 µM. Moreover, the TGI in the assay with NCI/ADR-RES ovarian, with M14 melanoma and in the assay with SN12C renal was over 100 µM throughout.
As for `CCOC(=O)CCC(NC(=O)c1ccc(Nc2nc3cc(C(F)(F)F)ccc3nc2C(=O)OCC)cc1)C(=O)OCC` (centres undefined), the TGI in the assay on 786-0 renal was 5.5 µM; with HOP-92 NSCLC, 9.95 µM; in the assay on MDA-MB-435, 21.9 µM; with MOLT-4 leukemia, over 100 µM; in the assay with SK-MEL-2 melanoma, 28.8 µM; in the assay with DU-145 prostate, over 100 µM. In addition, the TGI amounted to 29.7 µM in the assay with NCI/ADR-RES ovarian, 16.9 µM in the assay with M14 melanoma and 24.3 µM in the assay with SN12C renal.
For `CC(=O)NNc1nc(C)c(C(/C=C/c2ccc([N+](=O)[O-])cc2)=N/NC(N)=O)s1`, the TGI with 786-0 renal, with SK-OV-3 ovarian, with HOP-92 NSCLC, in the assay on MDA-MB-435, in the assay with MOLT-4 leukemia and in the assay with SK-MEL-2 melanoma was over 100 µM in each case. The TGI with DU-145 prostate, in the assay with NCI/ADR-RES ovarian, in the assay on M14 melanoma and in the assay on SN12C renal was over 100 µM each time.
With `N/C(=N\NC(=O)c1nc2ccccc2s1)c1ccccn1`, the TGI in the assay with 786-0 renal is 22.9 µM; in the assay on SK-OV-3 ovarian it was 29.5 µM; in the assay with HOP-92 NSCLC it was over 100 µM; in the assay on MDA-MB-435, over 37.6 µM; in the assay on MOLT-4 leukemia, 18.7 µM; in the assay on SK-MEL-2 melanoma, over 100 µM. Further, the TGI was over 40.2 µM in the assay on DU-145 prostate, 15.5 µM with NCI/ADR-RES ovarian, 23.6 µM in the assay with M14 melanoma and 18 µM in the assay with SN12C renal.
For the molecule `N#CCCN(CCC#N)c1ccc(/C=C2\SC(=S)NC2=O)cc1`, the TGI with 786-0 renal, in the assay with SK-OV-3 ovarian, with HOP-92 NSCLC, in the assay with MDA-MB-435, in the assay with MOLT-4 leukemia and in the assay with SK-MEL-2 melanoma was over 100 µM each time. Also, the TGI with DU-145 prostate, in the assay with NCI/ADR-RES ovarian, with M14 melanoma and in the assay with SN12C renal was over 100 µM throughout.
In the case of `COCCOC(C)C(=O)C(O)S(=O)(=O)O` (centres undefined), the TGI in the assay with 786-0 renal, in the assay on SK-OV-3 ovarian, in the assay with HOP-92 NSCLC, in the assay with MDA-MB-435, in the assay on MOLT-4 leukemia and in the assay with SK-MEL-2 melanoma was over 100 µM throughout. Besides, the TGI with DU-145 prostate, in the assay on NCI/ADR-RES ovarian, in the assay on M14 melanoma and in the assay on SN12C renal was over 100 µM in each case.
For `Cn1c(=O)c2c(nc3n2CCC(=O)N3CCCCl)n(C)c1=O`, the TGI in the assay on 786-0 renal, in the assay with SK-OV-3 ovarian, in the assay on HOP-92 NSCLC, in the assay on MDA-MB-435, in the assay with MOLT-4 leukemia and with SK-MEL-2 melanoma was over 100 µM each time. Further, the TGI in the assay with DU-145 prostate, in the assay on NCI/ADR-RES ovarian, in the assay on M14 melanoma and in the assay on SN12C renal was over 100 µM each time.
For the molecule `O=C(O)CN1CCCC(Cc2c[nH]c3ccccc23)C1` (centres undefined), the TGI in the assay on SK-OV-3 ovarian, in the assay with HOP-92 NSCLC, with MDA-MB-435, in the assay on SK-MEL-2 melanoma, in the assay on DU-145 prostate and in the assay with NCI/ADR-RES ovarian was over 100 µM throughout. For the same molecule, the TGI with M14 melanoma is over 100 µM.
Regarding `COC(=O)CCCC1(CCCC(=O)OC)CCCCCCCCC(CCCC(=O)OC)(CCCC(=O)OC)C(=O)C1=O`, the TGI in the assay on 786-0 renal is 33.5 µM; in the assay with SK-OV-3 ovarian it was over 100 µM; in the assay with HOP-92 NSCLC, 39 µM; in the assay on MDA-MB-435, over 100 µM; in the assay with SK-MEL-2 melanoma, 70.5 µM; in the assay with DU-145 prostate, over 100 µM. Also, the TGI with NCI/ADR-RES ovarian, with M14 melanoma and in the assay with SN12C renal was over 100 µM in each case.
As to `O=S(c1ccccc1)C1CC2CC3(CCC21O)OCCO3` (centres undefined), the TGI with 786-0 renal, in the assay on SK-OV-3 ovarian, in the assay with HOP-92 NSCLC, in the assay with MDA-MB-435, in the assay on MOLT-4 leukemia and in the assay with SK-MEL-2 melanoma was over 100 µM throughout. Further, the TGI in the assay on DU-145 prostate, with NCI/ADR-RES ovarian and in the assay with M14 melanoma was over 100 µM each time.
Turning to `O=C(OCC1CCCN2CCCCC12)c1cccnc1` (centres undefined), the TGI in the assay on 786-0 renal, with SK-OV-3 ovarian, with HOP-92 NSCLC, with MDA-MB-435, in the assay with MOLT-4 leukemia and with SK-MEL-2 melanoma was over 100 µM in each case. Further, the TGI in the assay on DU-145 prostate, in the assay on NCI/ADR-RES ovarian and in the assay with SN12C renal was over 100 µM throughout.
Turning to `C/C(=N\NC(=O)CC#N)C(CN1CCCCC1)C(c1ccccc1)c1c(O)c2ccccc2oc1=O` (centres undefined), the TGI in the assay with 786-0 renal is over 100 µM; in the assay with SK-OV-3 ovarian, over 100 µM; with HOP-92 NSCLC, 95.7 µM; with MDA-MB-435, over 100 µM; with MOLT-4 leukemia, 69.4 µM; in the assay with SK-MEL-2 melanoma, over 100 µM. Also, the TGI in the assay on DU-145 prostate, in the assay on NCI/ADR-RES ovarian and in the assay with M14 melanoma was over 100 µM in each case.
Take `C=CC(C)(C)C1(CC(OC)OC)C(=O)N(C)c2ccccc21` (centres undefined): the TGI in the assay on 786-0 renal, with SK-OV-3 ovarian, in the assay with HOP-92 NSCLC, in the assay on MDA-MB-435, with SK-MEL-2 melanoma and with DU-145 prostate was over 25 µM throughout. The TGI in the assay on NCI/ADR-RES ovarian, in the assay on M14 melanoma and in the assay with SN12C renal was over 25 µM in each case.
With `C=C1C(=O)[C@]23C[C@H]1C[C@@H](O)[C@H]2[C@]1(COC3=O)[C@@H](OC(C)=O)CC[C@@](C)(COC(C)=O)[C@H]1C=O`, the TGI with 786-0 renal was over 50 µM; in the assay with HOP-92 NSCLC it was 22.3 µM; in the assay with MDA-MB-435, over 50 µM; with MOLT-4 leukemia, 18.2 µM; in the assay on SK-MEL-2 melanoma, over 50 µM; with DU-145 prostate, over 50 µM. Further, the TGI in the assay with NCI/ADR-RES ovarian and with SN12C renal was over 50 µM in each case.
On to `Nc1nc(Nc2ccc(Cl)cc2)sc1C(=O)c1c[nH]c2ccccc12`, for which the TGI with 786-0 renal came out at 15.6 µM; in the assay on SK-OV-3 ovarian it was 46.4 µM; with HOP-92 NSCLC, 36.2 µM; in the assay with MDA-MB-435, 47.5 µM; in the assay on SK-MEL-2 melanoma, 28.4 µM; in the assay with DU-145 prostate it was 38.9 µM. In addition, the TGI with NCI/ADR-RES ovarian came out at 33.1 µM; in the assay with M14 melanoma, 23.5 µM; in the assay on SN12C renal, 29 µM.
In the case of `COc1cc(OCc2nc3cc(C(F)(F)F)ccc3nc2-c2ccccc2)cc(OC)c1OC`, the TGI in the assay on 786-0 renal, in the assay on SK-OV-3 ovarian, in the assay on HOP-92 NSCLC, in the assay on MDA-MB-435, in the assay with MOLT-4 leukemia and with SK-MEL-2 melanoma was over 100 µM throughout. The TGI in the assay with DU-145 prostate, with NCI/ADR-RES ovarian and in the assay with M14 melanoma was over 100 µM in each case.
Regarding `O=C(/C=C/c1ccc2c(c1)OCO2)NCCc1ccco1`, the TGI in the assay with SK-OV-3 ovarian, in the assay with HOP-92 NSCLC, in the assay with MDA-MB-435, in the assay on MOLT-4 leukemia, in the assay on SK-MEL-2 melanoma and with DU-145 prostate was over 100 µM each time. Besides, the TGI with NCI/ADR-RES ovarian, with M14 melanoma and with SN12C renal was over 100 µM each time.
`C[C@]12C(=O)C=CCC1=CC[C@@H]1[C@@H]2[C@H]2CC3(O)C(=O)O[C@@]4(C)[C@H]5C[C@@]6(C)[C@@H]7[C@@]2(O)[C@]1(OC[C@H]6C(=O)O5)O[C@]734` (some centres undefined): the TGI was over 100 µM in the assay on 786-0 renal; over 100 µM in the assay on HOP-92 NSCLC; over 100 µM in the assay with MDA-MB-435; 90.3 µM in the assay with MOLT-4 leukemia; over 100 µM with SK-MEL-2 melanoma; over 100 µM in the assay with DU-145 prostate. Further, the TGI in the assay on NCI/ADR-RES ovarian, in the assay on M14 melanoma and in the assay with SN12C renal was over 100 µM in each case.
For the molecule `COc1ccc(C(=O)c2c(-c3ccccc3NC(=O)C(F)(F)F)[nH]c3ccccc23)cc1`, the TGI with SK-OV-3 ovarian was determined as 32.7 µM; in the assay with HOP-92 NSCLC, 27.6 µM; in the assay with MDA-MB-435 it was 25.5 µM; with MOLT-4 leukemia, 10.6 µM; in the assay with SK-MEL-2 melanoma, 14.9 µM; with DU-145 prostate, 17 µM. The TGI with NCI/ADR-RES ovarian worked out at 28.8 µM; in the assay with M14 melanoma it was 32.6 µM; in the assay with SN12C renal, 28.3 µM.
For `C=CCNc1nc(O)c(/C=C2\C=Nc3ncccc32)s1`, the GI50 in the assay with SK-OV-3 ovarian was 2.21 µM; with HOP-92 NSCLC, 0.227 µM; in the assay with MDA-MB-435 it was 1.94 µM; in the assay with MOLT-4 leukemia, 2.64 µM; with SK-MEL-2 melanoma, 2.23 µM; with DU-145 prostate, 2.21 µM. Besides, the results for the GI50 in the assay on NCI/ADR-RES ovarian, in the assay with M14 melanoma and in the assay on SN12C renal were 5.05 µM, 3.45 µM and 2.1 µM, respectively. In addition, the TGI in the assay on SK-OV-3 ovarian was 8.66 µM; in the assay on HOP-92 NSCLC it was 6.38 µM; in the assay with MDA-MB-435, 4.96 µM; with MOLT-4 leukemia it was 7.95 µM; with SK-MEL-2 melanoma it was 5.09 µM; with DU-145 prostate it was 21.6 µM. Also, the results for the TGI in the assay on NCI/ADR-RES ovarian, in the assay on M14 melanoma and in the assay on SN12C renal were over 100 µM, 13.1 µM and 5.52 µM, respectively.
With `CC(C(=O)NCCNC(=O)CCC(=O)N(C)O)C(=O)NCCNC(=O)CCC(=O)N(C)O`, the TGI in the assay on SK-OV-3 ovarian, with HOP-92 NSCLC, with MDA-MB-435, in the assay on MOLT-4 leukemia, with SK-MEL-2 melanoma and with DU-145 prostate was over 100 µM in each case. For the same molecule, the TGI in the assay with NCI/ADR-RES ovarian and with M14 melanoma was over 100 µM each time.
